In one test the target is T1, SARM1 SAM-TIR (Homo sapiens, UniProt Q6SZW1).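 Note: inhibition of SARM1 SAM-TIR NADase activity, i.e. NAD+ cleavage, using lysate of NRK1-HEK293T cells overexpressing the SAM-TIR fragment.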
T1 construct: a fragment of the SARM1 molecule encompassing the SAM and TIR domains; made in house; host or cells: NRK1-HEK293T cells, transiently transfected; the cleared, unpurified lysate was used as the enzyme
T1 sequence (Q6SZW1 409-724 limits assumed): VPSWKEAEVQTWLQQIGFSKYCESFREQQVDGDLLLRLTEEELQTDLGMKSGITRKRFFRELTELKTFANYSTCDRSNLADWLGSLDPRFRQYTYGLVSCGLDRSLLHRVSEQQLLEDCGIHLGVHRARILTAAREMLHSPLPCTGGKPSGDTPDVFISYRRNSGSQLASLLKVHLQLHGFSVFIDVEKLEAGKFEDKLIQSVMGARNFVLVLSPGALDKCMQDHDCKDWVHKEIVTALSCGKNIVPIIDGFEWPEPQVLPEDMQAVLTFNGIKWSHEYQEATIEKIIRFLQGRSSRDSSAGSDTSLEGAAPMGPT
The experiment in a line: biochemical.

In test [1] the test system is mouse dorsal root ganglion (DRG) drop culture. The experiment in a line: Axon degeneration assay in mouse DRG drop culture. It is filed as cell-based. Conditions: protection of axon fragmentation, axonal transection or chemotoxic stimuli. The procedure: This Example illustrates an in vitro axon degeneration assay used to characterize compounds of Formula I or Formula II. This assay is used to test the efficacy of the compounds of Formula I or Formula II to prevent axonal degeneration in a mouse dorsal root ganglion (DRG) drop culture.
Mouse DRG Drop culture: Mouse dorsal root ganglion neurons (DRGs) were dissected out of E12.5 CD1 mice (50 ganglion per embryo) and incubated with 0.5% Trypsin solution containing 0.02% EDTA (Gibco) at 37° C. for 15 min. The cells were then triturated by gentle pipetting and washed 3 times with DRG growth medium (Neurobasal medium (Gibco) containing 2% B27 (Invitrogen), 100 ng/ml 2.5S NGF (Harland Bioproducts), […] 5-fluoro-2′deoxyuridine (Sigma), penicillin, and streptomycin). Cells were suspended in the DRG growth medium. DRG drop cultures were created by spotting 5000 cells/well into the center of each well of a 96-well tissue culture plate coated with poly-D-Lysine (0.1 mg/ml; Sigma) and laminin ([…]; Invitrogen). Cells were allowed to adhere to the plates in a humidified tissue culture incubator (5% CO2) for 15 min and then DRG growth medium was gently added ([…]).
Axon degeneration assay: Axonal degeneration was stimulated either by manual axonal transection using a scalpel blade, or chemotoxic stimuli. After an appropriate experimental time period, the DRG cultures were fixed in 1% PFA plus sucrose and kept in the fridge prior to imaging. Bright-field images of DRG axons and cell bodies were collected using the 20× water immersion lens of a Phenix automated confocal microscope (PerkinElmer) and quantitation of axonal performed using in-house developed scripts (Acapella, PerkinElmer).

Setting [2] is: SAM-TIR lysate 5 μg/mL, 2 h pre-incubation, 5 μM NAD+, RapidFire MS of NAD+ and ADPR, read-out: SARM1 IC50.

A word on the IC50: it is the concentration needed to halve the response being measured.

SMILES strings stand for the structures. Like-named read-outs stand apart in the source and are kept apart here. Bounds are passed on as bounds.

`Cn1sc(Nc2ccccc2C(F)(F)F)c(C#N)c1=O` [Example 31]: the half-inhibitory concentration (IC50) on SARM1 SAM-TIR (setting [2]) was < 1 µM; in test [1], 10 to 30 µM. As for `Cc1ccccc1Nc1snc(O)c1C#N` [Example 7], the IC50 was in the range of 1 to 5 µM at SARM1 SAM-TIR (setting [2]) and 10 to 30 µM in test [1]. For `N#Cc1c(O)nsc1Nc1cccc(C(F)(F)F)c1` [Example 12] the same measures were 1 to 5 µM and < 10 µM.

As for `N#Cc1c(O)nsc1Nc1cccc2ncccc12` [Example 27], the half-maximal inhibitory concentration (IC50) on SARM1 SAM-TIR (setting [2]) is 1 to 5 µM; in test [1], < 10 µM. In the case of `N#Cc1c(O)nsc1Nc1ccccc1C(F)(F)F` [Example 6], the concentration for half-maximal inhibition (IC50) at SARM1 SAM-TIR (setting [2]) was < 1 µM; in test [1] it was 10 to 30 µM. As to `C[C@@H](c1ccccc1)n1sc(Nc2c(Cl)cccc2Cl)c(C(=N)N2CCOCC2)c1=O` [Example 165], at SARM1 SAM-TIR (setting [2]), the IC50 was > 5 µM. On the same count and under the same terms, next, `COCCn1sc(Nc2c(OC)cccc2C(F)(F)F)c(C(=N)N(C)C)c1=O` [Example 135]: 1 to 5 µM; `Cc1c(Nc2ccccc2C(F)(F)F)s[nH]c1=O` [Example 169]: > 5 µM; `COCCn1sc(Nc2cccc3ncccc23)c(C#N)c1=O` [Example 95]: < 1 µM. Still for that read-out and setting: the same measure for `CN(C)C(=O)c1c(Nc2ccccc2C(F)(F)F)s[nH]c1=O` [Example 115]: 1 to 5 µM. Still for that read-out and setting: next, `N#Cc1c(Nc2ccccc2C2CC2)s[nH]c1=O` [Example 111]: 1 to 5 µM. For `N#Cc1c(Nc2cccc(C3=CCNCC3)c2C(F)(F)F)s[nH]c1=O` [Example 131], the IC50 at SARM1 SAM-TIR was < 1 µM.

With `CC(C)(O)Cn1sc(Nc2c(Cl)cccc2Cl)c(C#N)c1=O` [Example 101], on SARM1 SAM-TIR (setting [2]), the IC50 was < 1 µM.

For the origin of these results see US12624026B2, “Inhibitors of SARM1” (Disarm Therapeutics, Inc., priority 2018, dated 2026).
